# Source: PubChem BioAssay (NCI)
#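 Results reflect a 48-hour exposure of cells in 96-well plates to compound at five concentrations. At the TGI there is no net growth.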
# Key:
# Test in all cases: inhibition of tumour cell growth, NCI panel, 48 h
# [1] = system: SR leukemia
# [2] = system: HCT-116 colon
# [3] = system: SW-620 colon
# [4] = system: NCI-H23 lung
# [5] = system: UO-31 renal
# [6] = system: MOLT-4 leukemia
# [7] = system: TK-10 renal
# [8] = system: A498 renal
# [9] = system: HCC-2998 colon
# [10] = system: OVCAR-4 ovarian
# [11] = system: SN12C renal
# [12] = system: OVCAR-3 ovarian
# [13] = system: M19-MEL melanoma
# [14] = system: HT29 colon
# [15] = system: RPMI-8226 leukemia
# [16] = system: UACC-257 melanoma
# [17] = system: EKVX NSCLC
# [18] = system: IGROV1 ovarian
# [19] = system: RXF 393 renal
# [20] = system: HOP-62 NSCLC
# [21] = system: HCT-15 colon
# [22] = system: UACC-62 melanoma
# [23] = system: NCI-H460 lung
# [24] = system: SF-295 CNS
# [25] = system: XF 498 CNS
# [26] = system: SNB-75 CNS
# [27] = system: NCI-H226 lung
# [28] = system: K-562 leukemia
# [29] = system: ACHN renal
# [30] = system: SK-OV-3 ovarian
# [31] = system: DMS 273 small cell lung
# [32] = system: LOX IMVI melanoma
# [33] = system: DMS 114 small cell lung
# [34] = system: KM20L2 colon
# [35] = system: SF-268 CNS
# [36] = system: SK-MEL-2 melanoma
# [37] = system: OVCAR-5 ovarian
# [38] = system: OVCAR-8 ovarian
# [39] = system: U251 CNS
# [40] = system: CCRF-CEM leukemia
# [41] = system: SF-539 CNS
# [42] = system: DLD-1 colon
# [43] = system: MALME-3M melanoma
# [44] = system: SNB-78 CNS
# [45] = system: LXFL 529 NSCLC
# [46] = system: COLO 205 colon
# [47] = system: A549 NSCLC
# [48] = system: 786-0 renal
# [49] = system: M14 melanoma
# [50] = system: HL-60(TB) leukemia
# [51] = system: HOP-92 NSCLC
# [52] = system: SK-MEL-28 melanoma
# [53] = system: SNB-19 CNS
# [54] = system: SK-MEL-5 melanoma
# [55] = system: NCI-H522 lung
# [56] = system: CAKI-1 renal
# [57] = system: KM12 colon
# [58] = system: HOP-18 NSCLC
structure (smiles),measurement,setting,value
CN(C)CCN(C)C(=O)C1CCCN1C(=O)OCc1ccccc1 (configuration not stated),TGI,[1],> 100 µM
same,TGI,[2],> 100 µM
same,TGI,[3],> 100 µM
same,TGI,[4],> 100 µM
same,TGI,[5],> 100 µM
same,TGI,[6],> 100 µM
same,TGI,[7],> 100 µM
same,TGI,[8],> 100 µM
same,TGI,[9],> 100 µM
same,TGI,[10],> 100 µM
same,TGI,[11],> 100 µM
same,TGI,[12],> 100 µM
same,TGI,[13],> 100 µM
same,TGI,[14],> 100 µM
same,TGI,[15],> 100 µM
same,TGI,[16],> 100 µM
same,TGI,[17],> 100 µM
same,TGI,[18],> 100 µM
same,TGI,[19],> 100 µM
same,TGI,[20],> 100 µM
same,TGI,[21],> 100 µM
same,TGI,[22],> 100 µM
same,TGI,[23],> 100 µM
same,TGI,[24],> 100 µM
same,TGI,[25],> 100 µM
same,TGI,[26],> 100 µM
same,TGI,[27],> 100 µM
same,TGI,[28],> 100 µM
same,TGI,[29],> 100 µM
same,TGI,[30],> 100 µM
same,TGI,[31],> 100 µM
same,TGI,[32],> 100 µM
same,TGI,[33],> 100 µM
same,TGI,[34],> 100 µM
same,TGI,[35],> 100 µM
same,TGI,[36],> 100 µM
same,TGI,[37],> 100 µM
same,TGI,[38],> 100 µM
same,TGI,[39],> 100 µM
same,TGI,[40],48.7 µM
same,TGI,[41],> 100 µM
same,TGI,[42],> 100 µM
same,TGI,[43],> 100 µM
same,TGI,[44],> 100 µM
same,TGI,[45],> 100 µM
same,TGI,[46],> 100 µM
same,TGI,[47],> 100 µM
same,TGI,[48],> 100 µM
same,TGI,[49],> 100 µM
same,TGI,[50],> 100 µM
same,TGI,[51],> 100 µM
same,TGI,[52],> 100 µM
same,TGI,[53],> 100 µM
same,TGI,[54],> 100 µM
same,TGI,[55],24 µM
CC(=O)N(CCN1C(=O)c2ccccc2C1=O)CCN1C(=O)c2ccccc2C1=O,TGI,[1],> 100 µM
same,TGI,[2],> 100 µM
same,TGI,[3],> 100 µM
same,TGI,[4],> 100 µM
same,TGI,[5],> 100 µM
same,TGI,[6],> 100 µM
same,TGI,[7],> 100 µM
same,TGI,[8],> 100 µM
same,TGI,[9],> 100 µM
same,TGI,[10],> 100 µM
same,TGI,[11],> 100 µM
same,TGI,[12],> 100 µM
same,TGI,[13],> 100 µM
same,TGI,[15],> 100 µM
same,TGI,[16],> 100 µM
same,TGI,[17],> 100 µM
same,TGI,[19],> 100 µM
same,TGI,[20],> 100 µM
same,TGI,[21],> 100 µM
same,TGI,[22],> 100 µM
same,TGI,[23],> 100 µM
same,TGI,[24],> 100 µM
same,TGI,[25],> 100 µM
same,TGI,[26],> 100 µM
same,TGI,[28],> 100 µM
same,TGI,[29],> 100 µM
same,TGI,[30],> 100 µM
same,TGI,[31],> 100 µM
same,TGI,[32],> 100 µM
same,TGI,[33],> 100 µM
same,TGI,[56],> 100 µM
same,TGI,[34],> 100 µM
same,TGI,[35],> 100 µM
same,TGI,[36],> 100 µM
same,TGI,[38],> 100 µM
same,TGI,[39],> 100 µM
same,TGI,[40],> 100 µM
same,TGI,[42],> 100 µM
same,TGI,[44],> 100 µM
same,TGI,[45],> 100 µM
same,TGI,[46],> 100 µM
same,TGI,[47],> 100 µM
same,TGI,[48],> 100 µM
same,TGI,[49],> 100 µM
same,TGI,[50],> 100 µM
same,TGI,[51],> 100 µM
same,TGI,[52],> 100 µM
same,TGI,[53],> 100 µM
same,TGI,[54],> 100 µM
same,TGI,[55],> 100 µM
same,TGI,[57],> 100 µM
O=C1Oc2cc3c(c4cccc1c24)OCN(c1ccccc1)C3,TGI,[1],> 100 µM
same,TGI,[2],> 100 µM
same,TGI,[3],> 100 µM
same,TGI,[4],> 100 µM
same,TGI,[5],> 100 µM
same,TGI,[6],> 100 µM
same,TGI,[7],> 100 µM
same,TGI,[8],> 100 µM
same,TGI,[9],> 100 µM
same,TGI,[10],> 100 µM
same,TGI,[11],> 100 µM
same,TGI,[12],> 100 µM
same,TGI,[13],> 100 µM
same,TGI,[14],> 100 µM
same,TGI,[15],> 100 µM
same,TGI,[16],> 100 µM
same,TGI,[17],> 100 µM
same,TGI,[18],> 100 µM
same,TGI,[19],> 100 µM
same,TGI,[20],> 100 µM
same,TGI,[21],> 100 µM
same,TGI,[22],> 100 µM
same,TGI,[23],> 100 µM
same,TGI,[24],> 100 µM
same,TGI,[25],> 100 µM
same,TGI,[26],> 100 µM
same,TGI,[28],63 µM
same,TGI,[29],> 100 µM
same,TGI,[30],> 100 µM
same,TGI,[31],> 100 µM
same,TGI,[32],> 100 µM
same,TGI,[33],> 100 µM
same,TGI,[56],> 100 µM
same,TGI,[34],> 100 µM
same,TGI,[35],> 100 µM
same,TGI,[36],> 100 µM
same,TGI,[37],> 100 µM
same,TGI,[38],> 100 µM
same,TGI,[39],> 100 µM
same,TGI,[40],86.2 µM
same,TGI,[42],> 100 µM
same,TGI,[43],> 100 µM
same,TGI,[45],> 100 µM
same,TGI,[46],> 100 µM
same,TGI,[47],> 100 µM
same,TGI,[48],> 100 µM
same,TGI,[49],> 100 µM
same,TGI,[50],> 100 µM
same,TGI,[51],> 100 µM
same,TGI,[52],> 100 µM
same,TGI,[53],> 100 µM
same,TGI,[54],> 100 µM
same,TGI,[55],56.9 µM
same,TGI,[57],> 100 µM
O=c1c(O)cc2c(O)oc3c(=O)c(O)c(O)c4c(O)oc1c2c43,TGI,[1],> 100 µM
same,TGI,[2],> 100 µM
same,TGI,[3],> 100 µM
same,TGI,[4],> 100 µM
same,TGI,[5],> 100 µM
same,TGI,[6],72.2 µM
same,TGI,[7],> 100 µM
same,TGI,[8],> 100 µM
same,TGI,[9],> 100 µM
same,TGI,[10],33.3 µM
same,TGI,[11],36.5 µM
same,TGI,[12],> 100 µM
same,TGI,[13],25 µM
same,TGI,[14],> 100 µM
same,TGI,[15],> 100 µM
same,TGI,[16],> 100 µM
same,TGI,[17],> 100 µM
same,TGI,[18],> 100 µM
same,TGI,[19],> 100 µM
same,TGI,[20],> 100 µM
same,TGI,[21],> 100 µM
same,TGI,[22],> 100 µM
same,TGI,[23],> 100 µM
same,TGI,[24],50.4 µM
same,TGI,[26],> 100 µM
same,TGI,[27],> 100 µM
same,TGI,[28],57.9 µM
same,TGI,[29],> 100 µM
same,TGI,[30],> 100 µM
same,TGI,[31],> 100 µM
same,TGI,[32],34.1 µM
same,TGI,[33],67.7 µM
same,TGI,[56],> 100 µM
same,TGI,[34],> 100 µM
same,TGI,[35],> 100 µM
same,TGI,[36],> 100 µM
same,TGI,[37],> 100 µM
same,TGI,[38],> 100 µM
same,TGI,[39],34.3 µM
same,TGI,[40],> 100 µM
same,TGI,[41],> 100 µM
same,TGI,[42],> 100 µM
same,TGI,[43],> 100 µM
same,TGI,[44],> 100 µM
same,TGI,[45],> 100 µM
same,TGI,[46],> 100 µM
same,TGI,[47],> 100 µM
same,TGI,[48],> 100 µM
same,TGI,[58],> 100 µM
same,TGI,[49],> 100 µM
same,TGI,[50],> 100 µM
same,TGI,[51],> 100 µM
same,TGI,[52],> 100 µM
same,TGI,[53],> 100 µM
same,TGI,[54],> 100 µM
same,TGI,[55],> 100 µM
same,TGI,[57],> 100 µM
